Experimental data from patent US20060183733A1, “Treating microvasculature diseases with acetyl cholinesterase inhibitors” (priority 2005, published 2006).

Test system: patients with diabetic polyneuropathy
Assay type: in vivo, human
Details: drug stopped after initial improvement
Description: The symptoms of motor and sensory loss of diabetic polyneuropathy are ameliorated by acetylcholinesterase inhibitions by increasing concentration of acetylcholine, the principle neurotransmitter of the parasympathetic nervous system. By augmenting the trophic input of nerves of parasympathic nervous system; pain and dyserethesia are diminished and weakness/atrophy of muscles are diminished. The clinical observation in non-Alzheimer's patients is an improvement in motor and sensory function following treatment with effective doses of an acetylcholinesterase inhibitor. Improved blood flow within the microvascular circulation supplying the vasovasorum of the nerves produces the beneficial effect. By restoring blood flow to the vasovasorum of the nerves ischemic pain is relieved and normal function of the nerve is allowed to occur. The process of vasodilatation of the microvascular circulation is mediated through both neuronal and non-neuronal acetylcholine receptors stimulation by acetylcholine. Enhancement in acetylcholine levels is effected through treatment with acetylcholinesterase inhibitors.
The physiologic shift favoring vasoconstriction that is associated with diabetes is reversed following administration of an acetylcholinesterase inhibitor allowing perfusion of the microvasculature, restoring blood flow to ischemic motor and sensory nerves damaged by the effects of diabetes.

COc1cc2c(cc1OC)C(=O)C(CC1CCN(Cc3ccccc3)CC1)C2 (stereo not shown) [donepizil, 1-benzyl-4->(5,6-dimethoxy-1-indanon)-2-yl methylpiperidine]
course after the drug was withdrawn or lapsed: progressive decline in their ability and strength over the next 7-10 days
